Test results as given in ChEMBL document CHEMBL1201862, “PubChem BioAssay data set” (2004).
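In this assay, cells in 96-well plates receive the compound at five concentrations for 48 hours. Endpoints are linearly interpolated between the surrounding concentrations. GI50 marks 50% less growth.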 Active and inactive are the calls of the source. No stated cut-off is given here; in the data, active = GI50 up to about 1.1 µM and inactive = higher.

Legend:
Assay in all cases: growth of human tumour cells (NCI), 48 h
HCT-116 = system: HCT-116
SF-268 = system: SF-268
K562 = system: K562
HOP-92 = system: HOP-92
UACC-62 = system: UACC-62
CCRF-CEM = system: CCRF-CEM
SNB-75 = system: SNB-75
NCI-H226 = system: NCI-H226
PC-3 = system: PC-3
OVCAR-8 = system: OVCAR-8
U-251 = system: U-251
MOLT-4 = system: MOLT-4
BT-549 = system: BT-549
COLO 205 = system: COLO 205
UO-31 = system: UO-31
SK-MEL-5 = system: SK-MEL-5
SF-295 = system: SF-295
ACHN = system: ACHN
SR = system: SR

O=C(c1ccccc1F)c1c(NCc2ccccc2)c(=O)c1=O
GI50 (HCT-116): > 100 µM (inactive)
GI50 (SF-268): > 100 µM (inactive)
GI50 (K562): > 100 µM (inactive)
GI50 (HOP-92): > 100 µM (inactive)
GI50 (UACC-62): > 100 µM (inactive)
GI50 (CCRF-CEM): > 100 µM (inactive)
GI50 (SNB-75): > 100 µM (inactive)
GI50 (NCI-H226): > 100 µM (inactive)
GI50 (PC-3): > 100 µM (inactive)
GI50 (OVCAR-8): > 100 µM (inactive)
GI50 (U-251): > 100 µM (inactive)
GI50 (MOLT-4): > 100 µM (inactive)
GI50 (BT-549): > 100 µM (inactive)
GI50 (COLO 205): > 100 µM (inactive)
GI50 (UO-31): > 100 µM (inactive)
GI50 (SK-MEL-5): > 100 µM (inactive)
GI50 (SF-295): > 100 µM (inactive)
GI50 (ACHN): > 100 µM (inactive)

O=[N+]([O-])C(C(Cl)=C(Cl)Cl)=C(N1CCCCC1)N1CCCCC1
GI50 (HCT-116): > 100 µM (inactive)
GI50 (SF-268): > 100 µM (inactive)
GI50 (K562): 90.2 µM (inactive)
GI50 (UACC-62): > 100 µM (inactive)
GI50 (CCRF-CEM): 41.9 µM (inactive)
GI50 (SNB-75): > 100 µM (inactive)
GI50 (NCI-H226): > 100 µM (inactive)
GI50 (PC-3): > 100 µM (inactive)
GI50 (OVCAR-8): > 100 µM (inactive)
GI50 (U-251): > 100 µM (inactive)
GI50 (MOLT-4): 33.7 µM (inactive)
GI50 (BT-549): > 100 µM (inactive)
GI50 (COLO 205): > 100 µM (inactive)
GI50 (UO-31): 22.1 µM (inactive)
GI50 (SK-MEL-5): > 100 µM (inactive)
GI50 (SF-295): > 100 µM (inactive)
GI50 (SR): 33.8 µM (inactive)
GI50 (ACHN): > 100 µM (inactive)

COc1ccc(P2(=S)Oc3ccccc3-c3ccccc3O2)cc1
GI50 (HCT-116): 0.524 µM (active)
GI50 (SF-268): 1.5 µM (inactive)
GI50 (K562): 0.196 µM (active)
GI50 (HOP-92): 4.18 µM (inactive)
GI50 (UACC-62): 0.733 µM (active)
GI50 (CCRF-CEM): 0.356 µM (active)
GI50 (SNB-75): 0.337 µM (active)
GI50 (NCI-H226): 7.1 µM (inactive)
GI50 (PC-3): 0.193 µM (active)
GI50 (OVCAR-8): 0.802 µM (active)
GI50 (U-251): 0.429 µM (active)
GI50 (MOLT-4): 0.437 µM (active)
GI50 (BT-549): > 100 µM (inactive)
GI50 (COLO 205): 0.343 µM (active)
GI50 (UO-31): 0.518 µM (active)
GI50 (SK-MEL-5): 0.365 µM (active)
GI50 (SF-295): 0.296 µM (active)
GI50 (ACHN): 0.728 µM (active)

Cc1cc(S(=O)(=O)N=C2NCC(C)(C)CN2)c(S)cc1Cl
GI50 (HCT-116): 27.5 µM (inactive)
GI50 (SF-268): 73.3 µM (inactive)
GI50 (K562): 25.5 µM (inactive)
GI50 (UACC-62): 25.3 µM (inactive)
GI50 (SNB-75): 48.5 µM (inactive)
GI50 (NCI-H226): 32.1 µM (inactive)
GI50 (PC-3): 30.3 µM (inactive)
GI50 (OVCAR-8): 27 µM (inactive)
GI50 (U-251): 23.7 µM (inactive)
GI50 (BT-549): 29.5 µM (inactive)
GI50 (COLO 205): 47.3 µM (inactive)
GI50 (UO-31): 44.1 µM (inactive)
GI50 (SK-MEL-5): 17.2 µM (inactive)
GI50 (SR): 37.9 µM (inactive)
GI50 (ACHN): 24.1 µM (inactive)

C[C@@H]1CCC[C@]2(C)O[C@H]2CC[C@@](C)(O)[C@@H]2CC3=C(CO)C(=O)O[C@H]3[C@H]1O2
GI50 (HCT-116): > 50 µM (inactive)
GI50 (SF-268): > 50 µM (inactive)
GI50 (K562): > 50 µM (inactive)
GI50 (HOP-92): > 50 µM (inactive)
GI50 (UACC-62): > 50 µM (inactive)
GI50 (CCRF-CEM): 34.1 µM (inactive)
GI50 (SNB-75): > 50 µM (inactive)
GI50 (NCI-H226): > 50 µM (inactive)
GI50 (PC-3): > 50 µM (inactive)
GI50 (OVCAR-8): > 50 µM (inactive)
GI50 (U-251): > 50 µM (inactive)
GI50 (MOLT-4): > 50 µM (inactive)
GI50 (BT-549): > 50 µM (inactive)
GI50 (COLO 205): > 50 µM (inactive)
GI50 (UO-31): > 50 µM (inactive)
GI50 (SK-MEL-5): > 50 µM (inactive)
GI50 (SF-295): > 50 µM (inactive)
GI50 (ACHN): > 50 µM (inactive)

CO[C@@H]1C[C@H]2N3CC[C@@]2(c2cc4c(cc2C3)OCO4)[C@H]2O[C@@H]12
GI50 (HCT-116): > 100 µM (inactive)
GI50 (SF-268): > 100 µM (inactive)
GI50 (K562): > 100 µM (inactive)
GI50 (HOP-92): > 100 µM (inactive)
GI50 (UACC-62): > 100 µM (inactive)
GI50 (CCRF-CEM): > 100 µM (inactive)
GI50 (SNB-75): > 100 µM (inactive)
GI50 (NCI-H226): 1.34 µM (inactive)
GI50 (PC-3): > 100 µM (inactive)
GI50 (OVCAR-8): > 100 µM (inactive)
GI50 (U-251): > 100 µM (inactive)
GI50 (MOLT-4): > 100 µM (inactive)
GI50 (BT-549): > 100 µM (inactive)
GI50 (COLO 205): 0.851 µM (active)
GI50 (UO-31): > 100 µM (inactive)
GI50 (SK-MEL-5): 0.157 µM (active)
GI50 (SF-295): > 100 µM (inactive)
GI50 (ACHN): > 100 µM (inactive)

Nc1nc(N)c(C2=CCN(Cc3ccccc3)CC2)c(=O)[nH]1
GI50 (HCT-116): > 100 µM (inactive)
GI50 (SF-268): > 100 µM (inactive)
GI50 (K562): > 100 µM (inactive)
GI50 (HOP-92): > 100 µM (inactive)
GI50 (UACC-62): > 100 µM (inactive)
GI50 (CCRF-CEM): > 100 µM (inactive)
GI50 (SNB-75): > 100 µM (inactive)
GI50 (NCI-H226): > 100 µM (inactive)
GI50 (PC-3): > 100 µM (inactive)
GI50 (OVCAR-8): > 100 µM (inactive)
GI50 (U-251): > 100 µM (inactive)
GI50 (MOLT-4): > 100 µM (inactive)
GI50 (BT-549): > 100 µM (inactive)
GI50 (COLO 205): > 100 µM (inactive)
GI50 (UO-31): > 100 µM (inactive)
GI50 (SK-MEL-5): > 100 µM (inactive)
GI50 (SF-295): > 100 µM (inactive)
GI50 (ACHN): > 100 µM (inactive)

NC(Cc1ccccc1)C(=O)O (stereo not drawn) [DL-PHENYLALANINE]
GI50 (HCT-116): > 100 µM (inactive)
GI50 (SF-268): > 100 µM (inactive)
GI50 (K562): > 100 µM (inactive)
GI50 (HOP-92): > 100 µM (inactive)
GI50 (UACC-62): > 100 µM (inactive)
GI50 (CCRF-CEM): > 100 µM (inactive)
GI50 (SNB-75): > 100 µM (inactive)
GI50 (NCI-H226): > 100 µM (inactive)
GI50 (PC-3): > 100 µM (inactive)
GI50 (OVCAR-8): > 100 µM (inactive)
GI50 (U-251): > 100 µM (inactive)
GI50 (MOLT-4): > 100 µM (inactive)
GI50 (BT-549): > 100 µM (inactive)
GI50 (COLO 205): > 100 µM (inactive)
GI50 (UO-31): > 100 µM (inactive)
GI50 (SK-MEL-5): > 100 µM (inactive)
GI50 (SF-295): > 100 µM (inactive)
GI50 (ACHN): > 100 µM (inactive)

O=C(Nc1nnc(-c2ccccc2)o1)C(SC(=S)N1CCCC1)c1ccccc1 (configuration not stated)
GI50 (HCT-116): 25.1 µM (inactive)
GI50 (K562): 24.4 µM (inactive)
GI50 (CCRF-CEM): 13.4 µM (inactive)
GI50 (SNB-75): 40.8 µM (inactive)
GI50 (NCI-H226): 32.1 µM (inactive)
GI50 (PC-3): 27.8 µM (inactive)
GI50 (OVCAR-8): 32 µM (inactive)
GI50 (U-251): 23.3 µM (inactive)
GI50 (MOLT-4): 5 µM (inactive)
GI50 (BT-549): 23.1 µM (inactive)
GI50 (COLO 205): 37.2 µM (inactive)
GI50 (UO-31): 13.3 µM (inactive)
GI50 (SK-MEL-5): 17.8 µM (inactive)
GI50 (SF-295): 22.9 µM (inactive)
GI50 (SR): 20.1 µM (inactive)
GI50 (ACHN): 26.2 µM (inactive)

N#Cc1c(SCc2ccccc2)nc(-c2ccccc2)[nH]c1=S
GI50 (HCT-116): 23.7 µM (inactive)
GI50 (SF-268): 22 µM (inactive)
GI50 (K562): 31.6 µM (inactive)
GI50 (HOP-92): 31.6 µM (inactive)
GI50 (UACC-62): 21.7 µM (inactive)
GI50 (CCRF-CEM): 34.3 µM (inactive)
GI50 (SNB-75): 19.1 µM (inactive)
GI50 (NCI-H226): 26.5 µM (inactive)
GI50 (PC-3): 18.7 µM (inactive)
GI50 (OVCAR-8): 27.6 µM (inactive)
GI50 (U-251): 21.4 µM (inactive)
GI50 (MOLT-4): 29 µM (inactive)
GI50 (BT-549): 20.6 µM (inactive)
GI50 (COLO 205): 17.1 µM (inactive)
GI50 (UO-31): 17.8 µM (inactive)
GI50 (SK-MEL-5): 19.3 µM (inactive)
GI50 (SF-295): 22.4 µM (inactive)
GI50 (ACHN): 23 µM (inactive)

O=C1C=CC2(O[C@H](c3ccccc3)[C@@H](c3ccccc3)O2)C(SC(=O)c2ccccc2)C1 (some centres not stated)
GI50 (HCT-116): 0.355 µM (active)
GI50 (SF-268): 1.3 µM (inactive)
GI50 (K562): 1.32 µM (inactive)
GI50 (UACC-62): 2.34 µM (inactive)
GI50 (SNB-75): 2.09 µM (inactive)
GI50 (NCI-H226): 1.74 µM (inactive)
GI50 (PC-3): 2.13 µM (inactive)
GI50 (OVCAR-8): 0.201 µM (active)
GI50 (U-251): 1.56 µM (inactive)
GI50 (MOLT-4): 0.35 µM (active)
GI50 (BT-549): 0.433 µM (active)
GI50 (COLO 205): 1.4 µM (inactive)
GI50 (UO-31): 1.37 µM (inactive)
GI50 (SK-MEL-5): 1.47 µM (inactive)
GI50 (SF-295): 2.91 µM (inactive)
GI50 (SR): 0.256 µM (active)
GI50 (ACHN): 1.37 µM (inactive)
